In patent US20230341397A1, “PROTEASE BIOSENSORS AND METHODS OF VIRUS DETECTION” (Montana Molecular LLC, priority 2020, published 2023):

Columns and labels:
[1] = test system: feline infectious peritonitis virus (FPIV); conditions: Kim et al. 2016; disease otherwise 100% lethal; cited from earlier work
HEK 293 cells = conditions: all GC376 concentrations (FIG. 11B)

Q: With `CC(C)C[C@H](NC(=O)OCc1ccccc1)C(=O)N[C@@H](C[C@@H]1CCNC1=O)C(O)S(=O)(=O)[O-].[Na+]` (some centres unmarked) [GC376] as the molecule, how does the “outcome in cats with clinical FPIV” value [1] read?
A: The value was “rescues them”.

Q: And the “cell death / red fluorescent protein signal” value (HEK 293 cells)?
A: Its value is “not due to cell death”.
